Values quoted from earlier work as cited in US20180296814A1, “ADMINISTRATION OF DRUGS TO A PATIENT” (Progenity, Inc., priority 2010, published 2018).

Conditions: regional absorption in the intestinal tract, rats

- location of maximum absorption: ileum
Substance: salmon calcitonin
